Reference: ChEMBL document CHEMBL1909046, “DrugMatrix in vitro pharmacology data”

Tests used:
[1] = target: Sodium-dependent noradrenaline transporter (Homo sapiens, UniProt P23975); assay: DRUGMATRIX: Norepinephrine Transporter radioligand binding (ligand: [125I] RTI-55); assay type: cell membranes, MDCK, Membrane; conditions: Not Active = under 50% inhibition at 10 µM
Cytochrome P450 1A2 = target: T1, Cytochrome P450 1A2 (Homo sapiens, UniProt P05177); conditions: bti-tn-5b1-4; also: in other assays of this panel Not Active means under 50% inhibition at 10 µM
T1 sequence (P05177 whole entry): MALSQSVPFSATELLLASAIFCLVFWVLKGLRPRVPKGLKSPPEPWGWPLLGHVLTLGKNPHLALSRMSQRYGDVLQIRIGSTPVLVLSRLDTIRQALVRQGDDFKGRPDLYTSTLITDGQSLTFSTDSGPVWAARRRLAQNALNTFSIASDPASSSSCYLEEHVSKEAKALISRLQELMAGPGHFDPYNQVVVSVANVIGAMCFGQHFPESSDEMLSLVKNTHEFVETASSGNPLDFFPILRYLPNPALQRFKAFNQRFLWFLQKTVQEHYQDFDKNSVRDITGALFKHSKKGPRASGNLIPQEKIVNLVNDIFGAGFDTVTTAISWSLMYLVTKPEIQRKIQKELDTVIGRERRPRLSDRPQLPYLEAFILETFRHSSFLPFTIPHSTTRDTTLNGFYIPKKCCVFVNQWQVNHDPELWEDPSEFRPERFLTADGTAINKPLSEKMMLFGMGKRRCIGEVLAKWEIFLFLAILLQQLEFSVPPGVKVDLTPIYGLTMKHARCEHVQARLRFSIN

Cytochrome P450 2C19 = Cytochrome P450 2C19 (Homo sapiens, UniProt P33261); conditions: bti-tn-5b1-4; also: in other assays of this panel Not Active means under 50% inhibition at 10 µM
Cytochrome P450 2C19, sequence (P33261 whole entry): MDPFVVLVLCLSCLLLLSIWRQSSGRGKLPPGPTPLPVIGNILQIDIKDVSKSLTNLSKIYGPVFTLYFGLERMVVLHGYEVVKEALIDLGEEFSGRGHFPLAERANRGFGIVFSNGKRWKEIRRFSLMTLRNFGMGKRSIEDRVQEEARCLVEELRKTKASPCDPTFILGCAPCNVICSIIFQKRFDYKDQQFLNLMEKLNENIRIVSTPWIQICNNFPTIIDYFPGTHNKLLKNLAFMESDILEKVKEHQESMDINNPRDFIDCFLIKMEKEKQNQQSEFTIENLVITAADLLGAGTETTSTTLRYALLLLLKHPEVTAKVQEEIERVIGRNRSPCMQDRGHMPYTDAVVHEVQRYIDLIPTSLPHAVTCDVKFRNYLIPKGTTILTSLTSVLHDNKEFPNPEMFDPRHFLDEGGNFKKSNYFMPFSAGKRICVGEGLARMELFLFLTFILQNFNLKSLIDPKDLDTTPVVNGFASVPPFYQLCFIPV

Cytochrome P450 2D6 = Cytochrome P450 2D6 (Homo sapiens, UniProt P10635); conditions: bti-tn-5b1-4; also: in other assays of this panel Not Active means under 50% inhibition at 10 µM
Cytochrome P450 2D6, sequence (P10635 whole entry): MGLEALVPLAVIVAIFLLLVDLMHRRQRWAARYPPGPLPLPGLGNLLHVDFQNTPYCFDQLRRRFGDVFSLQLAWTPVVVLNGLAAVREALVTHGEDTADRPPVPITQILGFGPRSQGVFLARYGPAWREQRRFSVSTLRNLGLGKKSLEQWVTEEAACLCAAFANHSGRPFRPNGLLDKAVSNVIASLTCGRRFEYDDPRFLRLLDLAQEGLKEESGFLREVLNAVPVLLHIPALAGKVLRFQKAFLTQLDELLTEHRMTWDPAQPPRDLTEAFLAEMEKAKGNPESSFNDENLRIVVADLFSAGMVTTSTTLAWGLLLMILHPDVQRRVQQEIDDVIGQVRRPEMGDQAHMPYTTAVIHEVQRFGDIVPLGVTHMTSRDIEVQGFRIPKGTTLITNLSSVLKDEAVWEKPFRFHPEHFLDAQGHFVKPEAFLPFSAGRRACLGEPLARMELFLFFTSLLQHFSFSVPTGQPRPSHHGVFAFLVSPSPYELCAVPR

Cytochrome P450 3A4 = Cytochrome P450 3A4 (Homo sapiens, UniProt P08684); conditions: bti-tn-5b1-4; also: in other assays of this panel Not Active means under 50% inhibition at 10 µM
Cytochrome P450 3A4, sequence (P08684 whole entry): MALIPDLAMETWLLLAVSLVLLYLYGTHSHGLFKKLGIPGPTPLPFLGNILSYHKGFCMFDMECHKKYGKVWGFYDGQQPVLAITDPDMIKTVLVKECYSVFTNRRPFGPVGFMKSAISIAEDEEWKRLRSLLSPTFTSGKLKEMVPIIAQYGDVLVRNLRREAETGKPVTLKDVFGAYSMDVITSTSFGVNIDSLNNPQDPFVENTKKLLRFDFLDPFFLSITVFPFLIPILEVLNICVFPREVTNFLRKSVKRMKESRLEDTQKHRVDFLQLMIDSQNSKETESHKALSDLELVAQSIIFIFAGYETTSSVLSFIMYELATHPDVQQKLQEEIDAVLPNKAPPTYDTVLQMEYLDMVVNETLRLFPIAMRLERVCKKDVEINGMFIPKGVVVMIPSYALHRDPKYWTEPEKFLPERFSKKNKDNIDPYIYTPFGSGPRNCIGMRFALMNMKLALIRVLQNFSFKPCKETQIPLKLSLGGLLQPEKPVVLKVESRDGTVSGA

Glucocorticoid receptor = target: T2, Glucocorticoid receptor (Homo sapiens, UniProt P04150); conditions: hela s3; also: in other assays of this panel Not Active means under 50% inhibition at 10 µM
T2 sequence (P04150 whole entry): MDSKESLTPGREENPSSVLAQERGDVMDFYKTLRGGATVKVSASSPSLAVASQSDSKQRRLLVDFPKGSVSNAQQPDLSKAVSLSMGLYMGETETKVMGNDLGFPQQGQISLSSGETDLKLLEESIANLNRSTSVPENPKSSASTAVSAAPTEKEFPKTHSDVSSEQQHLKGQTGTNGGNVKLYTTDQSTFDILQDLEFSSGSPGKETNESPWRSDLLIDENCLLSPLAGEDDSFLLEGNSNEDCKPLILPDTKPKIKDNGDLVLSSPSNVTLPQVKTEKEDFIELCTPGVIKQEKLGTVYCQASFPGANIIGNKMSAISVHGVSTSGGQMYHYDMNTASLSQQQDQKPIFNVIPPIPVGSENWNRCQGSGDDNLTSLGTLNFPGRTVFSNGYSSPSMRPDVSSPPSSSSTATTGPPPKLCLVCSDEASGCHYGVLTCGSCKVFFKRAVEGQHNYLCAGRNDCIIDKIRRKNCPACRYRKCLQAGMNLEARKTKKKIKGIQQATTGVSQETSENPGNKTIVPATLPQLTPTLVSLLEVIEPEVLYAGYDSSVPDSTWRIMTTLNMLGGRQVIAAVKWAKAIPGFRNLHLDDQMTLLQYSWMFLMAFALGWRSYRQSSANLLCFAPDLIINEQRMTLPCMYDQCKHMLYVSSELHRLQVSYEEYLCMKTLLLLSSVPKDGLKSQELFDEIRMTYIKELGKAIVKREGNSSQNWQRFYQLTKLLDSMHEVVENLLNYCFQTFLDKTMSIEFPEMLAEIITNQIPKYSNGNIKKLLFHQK

[2] = target: Voltage-gated inwardly rectifying potassium channel KCNH2 (Homo sapiens, UniProt Q12809); conditions: hek293; also: in other assays of this panel Not Active means under 50% inhibition at 10 µM
Voltage-gated inwardly rectifying potassium channel KCNH2, sequence (Q12809 whole entry): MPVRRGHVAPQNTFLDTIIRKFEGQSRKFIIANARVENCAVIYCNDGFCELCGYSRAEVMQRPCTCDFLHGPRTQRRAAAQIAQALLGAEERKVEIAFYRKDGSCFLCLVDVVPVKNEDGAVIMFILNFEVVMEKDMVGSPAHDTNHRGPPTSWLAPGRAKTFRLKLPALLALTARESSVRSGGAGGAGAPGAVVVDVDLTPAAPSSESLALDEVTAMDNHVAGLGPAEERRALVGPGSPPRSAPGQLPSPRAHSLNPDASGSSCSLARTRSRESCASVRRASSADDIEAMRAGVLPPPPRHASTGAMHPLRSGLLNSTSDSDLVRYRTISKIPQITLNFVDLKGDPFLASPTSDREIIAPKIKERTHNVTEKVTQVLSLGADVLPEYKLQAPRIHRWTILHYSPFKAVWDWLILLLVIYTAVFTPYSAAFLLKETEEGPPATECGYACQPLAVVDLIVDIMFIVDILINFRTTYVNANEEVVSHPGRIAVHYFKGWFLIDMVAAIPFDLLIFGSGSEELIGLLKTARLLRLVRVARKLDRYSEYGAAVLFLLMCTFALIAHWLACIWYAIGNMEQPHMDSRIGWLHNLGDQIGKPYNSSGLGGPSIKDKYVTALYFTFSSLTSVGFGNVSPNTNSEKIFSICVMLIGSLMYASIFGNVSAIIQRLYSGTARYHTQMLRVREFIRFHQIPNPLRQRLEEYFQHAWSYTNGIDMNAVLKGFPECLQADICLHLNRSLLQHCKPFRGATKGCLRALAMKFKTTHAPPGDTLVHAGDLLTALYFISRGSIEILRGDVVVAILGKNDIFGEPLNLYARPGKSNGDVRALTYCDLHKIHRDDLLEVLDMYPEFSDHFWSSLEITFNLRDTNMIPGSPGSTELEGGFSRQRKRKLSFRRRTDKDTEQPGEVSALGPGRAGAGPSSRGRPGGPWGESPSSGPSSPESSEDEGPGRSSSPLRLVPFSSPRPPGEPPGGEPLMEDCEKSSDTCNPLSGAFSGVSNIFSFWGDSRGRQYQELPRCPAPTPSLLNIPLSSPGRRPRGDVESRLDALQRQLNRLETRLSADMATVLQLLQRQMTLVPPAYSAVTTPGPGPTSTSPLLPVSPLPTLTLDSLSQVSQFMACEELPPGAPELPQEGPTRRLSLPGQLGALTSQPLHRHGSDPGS

Sodium-dependent noradrenaline transporter, sequence (P23975 whole entry): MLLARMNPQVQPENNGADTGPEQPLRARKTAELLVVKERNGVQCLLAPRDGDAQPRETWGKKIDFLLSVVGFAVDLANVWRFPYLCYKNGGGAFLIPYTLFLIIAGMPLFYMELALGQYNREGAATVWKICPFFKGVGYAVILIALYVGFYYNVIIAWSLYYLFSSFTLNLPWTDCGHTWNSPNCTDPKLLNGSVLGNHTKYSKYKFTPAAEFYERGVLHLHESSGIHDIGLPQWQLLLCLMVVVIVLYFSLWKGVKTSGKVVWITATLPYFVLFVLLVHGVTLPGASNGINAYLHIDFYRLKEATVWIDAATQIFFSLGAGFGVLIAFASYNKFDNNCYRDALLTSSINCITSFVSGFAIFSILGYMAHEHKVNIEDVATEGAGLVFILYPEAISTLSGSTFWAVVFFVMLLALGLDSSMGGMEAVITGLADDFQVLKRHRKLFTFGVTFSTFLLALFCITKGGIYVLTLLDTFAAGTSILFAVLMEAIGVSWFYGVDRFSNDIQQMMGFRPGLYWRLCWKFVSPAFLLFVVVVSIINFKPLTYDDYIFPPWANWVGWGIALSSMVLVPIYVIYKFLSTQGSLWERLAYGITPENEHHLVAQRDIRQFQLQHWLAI

| Compound | IC50 ([1]; mdck) | IC50 (Cytochrome P450 1A2) | Ki (Cytochrome P450 1A2) | IC50 (Cytochrome P450 2C19) | Ki (Cytochrome P450 2C19) | IC50 (Cytochrome P450 2D6) | Ki (Cytochrome P450 2D6) | IC50 (Cytochrome P450 3A4) | Ki (Cytochrome P450 3A4) | IC50 (Glucocorticoid receptor) | IC50 [2] | Ki [2] | IC50 ([1]; read-out: IC50) [nM] | Ki ([1]; read-out: Ki) [nM] |
| --- | --- | --- | --- | --- | --- | --- | --- | --- | --- | --- | --- | --- | --- | --- |
| CC1(C)[C@H]2CC[C@]1(C)C(=O)C2 [(-)-CAMPHOR] | Not Active | Not Active | Not Active | Not Active | Not Active | Not Active | Not Active | Not Active | Not Active | Not Active | Not Active | Not Active | – | – |
| Nc1ccc(S(=O)(=O)Nc2ccnn2-c2ccccc2)cc1 [SULFAPHENAZOLE] | Not Active | Not Active | Not Active | Not Active | Not Active | Not Active | Not Active | Not Active | Not Active | Not Active | Not Active | Not Active | – | – |
| CC1CN(c2cc3c(cc2F)c(=O)c(C(=O)O)cn3-c2ccc(F)cc2F)CCN1 (centres undefined) [TEMAFLOXACIN] | Not Active | Not Active | Not Active | Not Active | Not Active | Not Active | Not Active | Not Active | Not Active | Not Active | Not Active | Not Active | – | – |
| CN[C@H](CC(C)C)C(=O)N[C@H]1C(=O)N[C@@H](CC(N)=O)C(=O)N[C@H]2C(=O)N[C@H]3C(=O)N[C@H](C(=O)N[C@H](C(=O)O)c4cc(O)cc(O)c4-c4cc3ccc4O)[C@H](O)c3ccc(c(Cl)c3)Oc3cc2cc(c3O[C@@H]2O[C@H](CO)[C@@H](O)[C@H](O)[C@H]2O[C@H]2C[C@](C)(N)[C@H](O)[C@H](C)O2)Oc2ccc(cc2Cl)[C@H]1O [VANCOMYCIN] | Not Active | Not Active | Not Active | Not Active | Not Active | Not Active | Not Active | Not Active | Not Active | Not Active | Not Active | Not Active | – | – |
| COc1cc(C(=O)NC2CCCNC2)cc(OC)c1OC (centres undefined) [TROXIPIDE] | Not Active | Not Active | Not Active | Not Active | Not Active | Not Active | Not Active | Not Active | Not Active | Not Active | Not Active | Not Active | – | – |
| NC(=O)c1ccccc1O [SALICYLAMIDE] | Not Active | Not Active | Not Active | Not Active | Not Active | Not Active | Not Active | Not Active | Not Active | Not Active | Not Active | Not Active | – | – |
| CCC[C@@H]1C[C@@H](C(=O)N[C@@H]([C@H]2O[C@H](SC)[C@H](O)[C@@H](O)[C@H]2O)[C@@H](C)O)N(C)C1 [LINCOMYCIN] | Not Active | Not Active | Not Active | Not Active | Not Active | Not Active | Not Active | Not Active | Not Active | Not Active | Not Active | Not Active | – | – |
| NC(CO)(CO)CO [TROMETHAMINE] | Not Active | Not Active | Not Active | Not Active | Not Active | Not Active | Not Active | Not Active | Not Active | Not Active | Not Active | Not Active | – | – |
| CC[C@H]1OC(=O)[C@H](C)[C@@H](O[C@H]2C[C@@](C)(OC)[C@@H](O)[C@H](C)O2)[C@H](C)[C@@H](O[C@@H]2O[C@H](C)C[C@H](N(C)C)[C@H]2O)[C@](C)(O)C[C@@H](C)/C(=N\OCOCCOC)[C@H](C)[C@@H](O)[C@]1(C)O [ROXITHROMYCIN] | Not Active | Not Active | Not Active | Not Active | Not Active | Not Active | Not Active | Not Active | Not Active | Not Active | Not Active | Not Active | – | – |
| CC(C)[C@H](N)C(=O)OCCOCn1cnc2c(=O)nc(N)[nH]c21 [VALACYCLOVIR] | Not Active | Not Active | Not Active | Not Active | Not Active | Not Active | Not Active | Not Active | Not Active | Not Active | Not Active | Not Active | – | – |
| NC(=O)c1ncn([C@@H]2O[C@H](CO)[C@@H](O)[C@H]2O)n1 [RIBAVIRIN] | Not Active | Not Active | Not Active | Not Active | Not Active | Not Active | Not Active | Not Active | Not Active | Not Active | Not Active | Not Active | – | – |
| COS(C)(=O)=O [METHANESULFONIC ACID METHYL ESTER] | Not Active | Not Active | Not Active | Not Active | Not Active | Not Active | Not Active | Not Active | Not Active | Not Active | Not Active | Not Active | – | – |
| CO[C@@H]1[C@@H](O[C@@H]2O[C@H](C)[C@@H](O[C@H]3C[C@@](C)(O)[C@@H](OC(=O)CC(C)C)[C@H](C)O3)[C@H](N(C)C)[C@H]2O)[C@@H](CC=O)C[C@@H](C)[C@@H](O)/C=C/C=C/C[C@@H](C)OC(=O)C[C@H]1O [KITASAMYCIN] | Not Active | Not Active | Not Active | Not Active | Not Active | Not Active | Not Active | Not Active | Not Active | Not Active | Not Active | Not Active | – | – |
| Clc1ccc(C(c2ccccc2Cl)C(Cl)Cl)cc1 (centres undefined) [MITOTANE] | – | Not Active | Not Active | Not Active | Not Active | Not Active | Not Active | Not Active | Not Active | Not Active | Not Active | Not Active | 819 | 812 |
